Bridge positions count the residues as written; N and C are the ends. Square brackets hold non-standard residues; d marks the D form. Peptide text beside a SMILES is read from it. * marks the point of attachment. X1 = CC[C@H](C)CCCCC(=O)*; Dab = NCC[C@H](N)C(=O)O
Columns and labels:
[1] = system: E. coli PmrA^G53E+rifampicin; assay: Rifampicin potentiation / outer membrane permeability, E. coli PmrA^G53E; type: cell-based
Experimental: Bacterial strains and plasmids are listed in SI Table S5. LB growth media was prepared according to manufacturer’s instructions and supplemented with 0.2% arabinose and carbenicillin (50 μg/mL) for the strains containing pBAD24-mcr1 plasmid. Cultures were started by inoculating 3 ml LB with 1–2 colonies from fresh overnight plates and grown at 37 °C until in log phase. Modified minimal inhibitory concentration (MIC) assays were performed in 96-well round bottom polystyrene plates (Corning) with a final volume of 100 µl in LB supplemented with tween-80 at 0.0005%. […] Polymyxin B sulfate (TCI Co. Ltd), polymyxin B nonapeptide (PMBN) (Sigma), and brevicidine (Genentech) were diluted directly in the assay plates. Bacteria were diluted in LB with tween-80 0.0005% and added to a final OD600 of 0.0005. Growth was measured via OD600 on a SpectraMax M5 plate reader after overnight static growth at 37 °C with humidity.

[2] = system: LPS (rough-LPS extracted from E. coli F583, Rd mutant); assay: Mechanistic SPR study, purified LPS; type: binding; conditions: for Rmax normalized by molecular weight ratio PMB:PMBN: LPS surface
Experimental: OMV-coated and whole cell-coated C1 chips were prepared as already described with the following changes and LPS-coated surfaces were prepared identically but with rough-LPS extracted from E. coli F583 (Rd mutant, Sigma #L6893). For LPS, cloudy colloid suspension (above its CMC, ~1 mg/ml) contains LPS micelles that were injected and captured. For all formats, sample buffer and running buffer were composed of Dulbecco’s phosphate-buffered salt solution containing 0.0005% tween-80 (Sigma), 1 mM calcium and 0.5 mM magnesium (Fisher Scientific), pH 7.4. Analysis and compartment temperatures were both set to 37 °C. Freshly prepared OMV-coated or whole cell-coated sensing surfaces were employed for each injection of polymyxin B while LPS-coated sensing surfaces could be fully regenerated by injecting 50 mM CHAPS. Reversibly bound PMBN could be reinjected over all surfaces without requiring regeneration as it fully dissociated within a few minutes.
Serial doubling dilutions of PMBN were injected from […] over whole cells and OMVs at […] for 1 min (Fig. 3A, B). This was repeated over LPS-coated sensing surfaces and, in this case, serial doubling dilutions of PMBN were injected from 5 mM to 0.625 mM for 30 s at […], immediately prior to injection of […] polymyxin B for 200 s at […] (Fig. 3D).
Fresh sensing surfaces coated with whole cells and OMVs were prepared and 325 nM polymyxin B was injected at […] for 120 s over both. This injection was repeated after a long delay, and without regeneration, in order to allow free sites to become available thereby resulting in two polymyxin B binding curves for each sensing surface (Fig. 3E, F). A fresh LPS-coated surface was prepared and polymyxin B was injected using SCK injection mode over a serial doubling dilution range from 625 nM to 39 nM.
Section 1 - Mechanistic studies of polymyxins
The interaction models introduced here (Eqn (S1-S3)) are annotated in terms of binding of polymyxin B (PMB) to LPS but also apply to any other affinity binding pair. Molar concentrations of bound PMB are converted to SPR response as R = G.MW.[PMB], where MW is the molecular weight of PMB, and G is a mass-to-response conversion factor. A full quantitative interpretation of SPR sensitivity has been reported1. In a general case, a protein concentration of 0.01 (g/L) produces a response of 1 response unit (RU) yielding the proportionality constant G=100 (L/g).
Here, we assume protein is distributed uniformly within a […] thick hydrogel, dissolved in buffer at near physiological salt concentrations in the absence of high concentrations of high refractive index substances, such as glycerol and DMSO. This calibration may be adjusted for variability in the refractive index increment when working with buffers or other classes of molecules such as nucleic acids, polysaccharides, or drug-like molecules. In addition, binding interactions confined to planar sensing surfaces (i.e., no hydrogel matrix) results in a 1.3-fold increased response due to minimal decay in SPR sensitivity when close to the sensing surface (e.g., < 10 nm). Change in protein accumulation over time produces responses that are indicated here by a time subscript (e.g., R(t)). A simple 1:1 model for binding of PMB to LPS to form an affinity complex PMBL is given by the pseudo-first-order model defined by Eqn (S1). dR/dt = (kon.[PMB]i.(Rmax-R(t)) -koff.R(t)) Eqn (S1)
Where R is the SPR response for accumulation of affinity complex PMBL. [PMB]i is the injected concentration of PMB and Rmax is the saturation response assuming full target occupancy. This model assumes that mass transport of PMB within the flow cell, which governs the rate of exchange of PMB between the bulk liquid and the sensing surface, is non-limiting. However, this […]
in the 1:1 two-compartment model in Eqn (S2). dR/dt = (kon.[PMB].(Rmax-R(t)) -koff.R(t)) + kt.([PMB]i(t) – [PMB]) Eqn (S2) […]

[3] = LPS pre-saturated with polymyxin B

| SMILES | MIC in presence of rifampicin [1] [µM] | outer membrane permeabilization / rifampicin potentiation [1] | Rmax normalized by molecular weight ratio PMB:PMBN [2] [RU] | consumption of available LPS ([2]; immediately after polymyxin B saturation) | Kd ([2]; two LPS densities, pre-saturated with polymyxin B, SCK from 625 nM, Eq. S3, (± SE)) [nM] | change in affinity and binding capacity after pre-saturation [2, 3] | fold loss in affinity [2, 3] [fold] | fold loss in binding capacity [2, 3] [fold] |
| --- | --- | --- | --- | --- | --- | --- | --- | --- |
| CC[C@H](C)CCCCC(=O)N[C@@H](CCN)C(=O)N[C@H](C(=O)N[C@@H](CCN)C(=O)N[C@H]1CCNC(=O)[C@H]([C@@H](C)O)NC(=O)[C@H](CCN)NC(=O)[C@H](CCN)NC(=O)[C@H](CC(C)C)NC(=O)[C@@H](Cc2ccccc2)NC(=O)[C@H](CCN)NC1=O)[C@@H](C)O [Polymyxin B] (X1-[Dab]T[Dab][Dab][Dab][dF]L[Dab][Dab]T; lactam 4-C (inferred); N-terminus assumed) | 0.001 | still potentiated the activity of an antibiotic normally excluded by the outer membrane, rifampicin | 407 | ~ 40% | 127 |  |  |  |
| CC(C)C[C@@H]1NC(=O)[C@@H](Cc2ccccc2)NC(=O)[C@H](CCN)NC(=O)[C@@H](NC(=O)[C@H](CCN)NC(=O)[C@@H](N)[C@@H](C)O)CCNC(=O)[C@H]([C@@H](C)O)NC(=O)[C@H](CCN)NC(=O)[C@H](CCN)NC1=O [PMBN] (H-T[Dab][Dab][Dab][dF]L[Dab][Dab]T; lactam 3-C) | 20 |  | 415 |  |  | two-fold drop in both affinity and binding capacity | 2 | 2 |
